Measurements as given in patent US20230404985A1, “METHODS OF TREATING TUMORS AND CANCERS HAVING DYSREGULATED WNT SIGNALING PATHWAYS” (ICAHN SCHOOL OF MEDICINE AT MOUNT SINAI, priority 2020, published 2023).

Legend:
[1] = system: MYC-CTNNB1 tumor organoids; assay: Drug toxicity (viability) assay in murine HCC tumor organoids; assay type: cell-based, mouse; conditions: screen in four tumor organoid models; 5 μM, viability after 3 days
Description: Liver tumors were minced and digested in sterile digestion media (PBS, 0.125 mg/mL collagenase from Clostridium histolyticum, 0.125 mg/mL dispase II, and 0.1 mg/mL DNaseI) for two hours at 37° C. Tumor dissociate was strained through a 70 μm strainer and washed with basal media (Advanced DMEM/F-12, 1% glutamine, 1% penicillin/streptomycin, 10 mM HEPES). Cells were counted, washed, resuspended at 50,000 cells per 50 μL Matrigel (Corning), and plated in 24 well plates. […]
For assays in organoid lines, 96 well plates were first coated with a 50:50 solution of basal media:Matrigel (35 μL/well), which polymerized for 15 minutes at 37° C. […] Viability was measured three days post drug administration with either luminescence from CellTiter-Glo or absorbance at 560 and 590 nm from resazurin. Viability data was analyzed by normalizing individual drug-treated well values to DMSO-treated wells. […]

WNT pathway reporter = assay: GFP-based WNT reporter in stable MYC-CTNNB1 organoids; assay type: cell-based, mouse
From the text: The library was further refined by performing dose-response curves on tumor organoids and primary human hepatocytes (FIG. 1C). In addition, stable MYC-CTNNB1 organoids expressing a GFP-based WNT reporter were created to assess direct transcriptional inhibition of the pathway. […] WNTinib was exemplary for its therapeutic index, as defined by its preferential activity in the CTNNB1-driven model as compared to hepatocytes.

[2] = system: MYC-CTNNB1 tumor organoid allografts; assay: MYC-CTNNB1 tumor organoid allografts; assay type: in vivo, C57BL/6J mice
[3] = system: AKS: APCKO::KRASG12D::SMAD4KO tumoroids; assay: TiterGlo viability of CRC tumoroids (AKS); assay type: cell-based, mouse
Description: FIGS. 13A-13E show results pertaining to colorectal cancer. […] Data are column/gene normalized on a 0-100 scale with 0 being the lowest expression level and 100 the highest. FIG. 13D show full dose-response analysis of WNTinib's effects on the indicated organoid and tumoroid lines; viability was quantified using the TiterGlo assay after 72 hours. WT intestinal organoids are used as a control. […] Images of the intestine are shown as an example.
First, an APC deletion (A) was introduced, then a KRAS^G12D overexpression (AK) in combination with a SMAD4^KO was introduced to affect the TGFbeta pathway (AKS). Last, P53 was deleted to mimic the latest stages of metastatic disease progression (AKSP).

[4] = WNTinib 20 mg/kg daily, anti-PD-1 200 μg i.p., start ~350 mm^3
[5] = tumors of advanced-stage allograft study

In the case of `CNC(=O)c1cc(Oc2ccc(NC(=O)Nc3ccc(C(F)(F)C(F)(F)F)cc3)c(F)c2)ccn1` [WNTinib, 4-(3-fluoro-4-(3-(4-(perfluoroethyl)phenyl)ureido)phenoxy)-N-methylpicolinamide], the “activity in tumor organoid screen” value [1] was “potent and selective activity”, the “WNT-driven GFP expression (WNT pathway reporter)” value (WNT pathway reporter) was “only compound to downregulate WNT-driven GFP expression” and the “survival in allograft combination study” value [2, 4] was “prolong survival”. The “tumor regression in allograft combination study” value [2, 4] was “able to induce tumor regression”, the “efficacy in allograft combination study” value ([2]; WNTinib 20 mg/kg, sorafenib 30 mg/kg daily, anti-PD-1 200 μg i.p., start ~350 mm^3) was “superior efficacy” and the tumor regression ([2]; treatment started at 100 mm^3, 30 mg/kg daily oral gavage) was “induced significant tumor regression in the majority of animals”. For the same molecule, the “efficacy in advanced-stage setting versus sorafenib” value ([2]; treatment started at 300-400 mm^3, WNTinib 20 mg/kg, sorafenib 30 mg/kg) was “superior to the standard of care clinical compound (sorafenib)”, the “EZH2 T367 phosphorylation in tumors” value [2, 5] was “inhibition of EZH2 T367 phosphorylation” and the “WNT-target genes in tumors (qPCR)” value [2, 5] was “in vivo suppression of WNT-target genes”. For the same molecule, the “viability of AKS CRC line” value ([3]; 72 hours post treatment) was “reduce the viability” and the “organoid morphology of AKS organoids” value ([3]; WNTinib 3 μM, 72 hrs) was “induce a reversal of organoid morphology”.
